Test results as given in patent US20100178279A1, “Beta-Glucan Enhances Hematopoietic Progenitor Cells Engraftment and Promotes Recovery from Chemotoxicity” (Cornell University, priority 2009, published 2010).

Experiments:
B6D2F1 mice [1] = assay: Paclitaxel-induced leukopenic mouse model, serial complete blood counts; type: in vivo
Description: Certified Rodent Diet #5053 (Lab Diet) was used. […] Mice were weighed each day. […] Sacrifice was performed by the CO2 method. […]
To determine the dose of Ptx required for induction of acute hematotoxicity that also permitted spontaneous recovery, fractionated dosing at 10 to 30 mg/kg was given 3 times every other day to groups of mice. After doses greater than 15 mg/kg were found effective, we compared cumulative doses of 60 and 90 mg/kg to untreated mice (n=4 each group). Serial CBCs were obtained from each mouse. Variation was evaluated by one-way ANCOVA and within mouse correlation was included as the covariate. Pair-wise differences were evaluated by Tukey's posttest. Treatment group variation was assessed by two-way ANOVA over the interval followed by between-group comparisons using Bonferroni posttests.

B6D2F1 mice [2] = assay: Peripheral blood cell recovery (complete blood cell count) after Ptx treatment
Description: Mice: B6D2F1 mice female, 6-8 weeks old were purchased from Jackson Laboratory, and were maintained in a pathogen-free facility at Memorial Sloan-Kettering Cancer Center (MSKCC, New York, N.Y.) with access to fresh water and food ad libitum. Certified Rodent Diet #5053 (Lab Diet) was used. All animal experiments were approved by the MSKCC Animal Care Committee. Treatments: Ptx was intraperitoneally injected (i.p) at 30 mg/kg/day over […] with cumulative dose of 90-120 mg/kg to mice. Neupogen (G-CSF) was given i.v. at 80 microg/kg at 24 hrs after the last dose of Ptx. […] Mice were weighed each day. Blood was taken from the tail vein for complete blood cell (CBC) counts. Sacrifice was performed by the CO2 method.
Complete Blood Cell Count: Approximately 20 microL of blood was taken from the tail vein after warming, for assessment of CBC by automated differential analysis using the Hemavet instrument after instrument standardization.
Statistical Analysis: Data are presented as mean percentage ±SD or mean counts ±SD. To identify the appropriate dose of Ptx, ANCOVA was used to examine significance of variation in average cell counts or percentage of change from baseline across all days for the cell type of interest in a treatment group and possible within-mouse correlation was adjusted by including mouse ID as a covariate. If overall significance by ANCOVA was shown, Tukey's method was used to determine between-day significance. To assess significance of variation across dose groups (including untreated) over the treatment interval, two-way ANOVA was used and then Bonferroni method was used to adjust for between-group multiple comparisons. In the studies of blood cell recovery, the decrease in cell count was calculated as compared to the corresponding baseline during the treatment for each mouse. The averages of the group decreases across different treatment groups were compared using two-way ANOVA to determine significance. Two sample t-tests were used to compare the difference in average percentage change at a given time point between any two treatment groups. Tukey's or Bonferroni method was used to adjust p-values for multiple comparisons where appropriate. The analyses were carried out using GraphPad Prism software version 5.01. Additional information is provided in the text.
30 mg/kg/day Ptx was given over 3 consecutive days (90 mg/kg cumulative dose) to each group. […] The Ptx+G-CSF group received one dose of intravenous G-CSF (80 ug/kg), 24 hrs after the last Ptx dose. Changes in absolute numbers of leukocytes (white blood cell count) from baseline were evaluated from post-day 1 to post-day 8 after chemotherapy. For each mouse, percent change in counts from baseline was calculated. Change from baseline across days within a treatment group was assessed by ANCOVA and within-mouse correlation was included as appropriate. Paired t-tests were used to compare any two time-points. Differences among treatment groups across the experimental period were assessed by two-way

[3] = system: Gr-1+ granulocytes/monocytes; assay: Flow cytometric oxidative burst (ROS) assay on peripheral blood ex vivo after Ptx; type: in vivo, mouse
Description: Flow Cytometric Oxidative Burst Assay: Peripheral blood was obtained by retro orbital bleeding; about 400 microL blood were collected into heparinized tubes. The respiratory burst assay was performed as described with modifications. Briefly, 100 microL blood aliquots were added to each tube, wash buffer or stimuli (opsonized E. coli, fMLP (N-formylmethionyl-leucyl-phenylalanine) were added at 20 microL. Tubes were incubated in a water bath at 37° C. for 10 mins, then 20 microL of dihydrorhodamine (DHR-123) was added and tubes were vortexed, and then incubated for another 10 mins. Red blood cells were lysed and removed after washing once. R-PE conjugated rat anti-mouse Ly-6G and Ly-6C (Gr-1, BD Biosciences) antibody was added in the presence of Mouse BD Fc Block (purified anti-mouse CD16/CD32 monoclonal antibody, 2.4G2, BD Biosciences) at 1 μg/million cells, and incubated at room temperature in the dark for 15 mins. Cells were washed; supernatants removed and 200 μL of DNA staining solution was added. The samples were analyzed by flow cytometer (FACSCalibur) using CellQuest. The initial gate was set with Gr-1 to identify granulocytes/monocytes; the percentage of responding cells was then analyzed with FlowJo software.
After brief exposure of whole blood to opsonized E. coli and the chemotactic peptide N-formyl-Met-Leu-Phe (fMLP) ex vivo, fluorescence of ROS positive cells was detected by the oxidation of the dihydrorhodamine substrate. Blood samples were collected from each group 4 days after the last dose of Ptx and again on post-day 11. […] Post-day 4 was 3 days after G-CSF injection for the Ptx+G-CSF group. The ROS responses of normal, untreated mice were also studied.

[4] = Ptx 90 mg/kg, MBG 6 mg/kg/day oral or G-CSF 80 ug/kg i.v. once

CC(=O)O[C@H]1C(=O)[C@@]2(C)[C@H]([C@H](OC(=O)c3ccccc3)[C@]3(O)C[C@H](OC(=O)[C@H](O)[C@@H](NC(=O)c4ccccc4)c4ccccc4)C(C)=C1C3(C)C)[C@]1(OC(C)=O)CO[C@@H]1C[C@@H]2O [Ptx, Paclitaxel]
Leukocyte numbers compared to untreated mice (B6D2F1 mice [1]; cumulative Ptx dose 60 mg/kg): fewer leukocytes
Neutrophil counts across all days (B6D2F1 mice [1]; cumulative Ptx dose 60 mg/kg, ANCOVA, no pair-wise comparisons significant): overall drop in neutrophil counts across all days was significant
Leukocyte numbers compared to untreated mice (B6D2F1 mice [1]; cumulative Ptx dose 90 mg/kg): lower leukocyte numbers on days 3, 4, and 5
Lymphocyte numbers compared to the untreated group (B6D2F1 mice [1]; cumulative Ptx dose 90 mg/kg): lower over days 3, 4, and 5
Lymphocytes compared to baseline (B6D2F1 mice [1]; cumulative Ptx dose 90 mg/kg): lower on day 8 compared to baseline
Neutrophil counts compared to baseline (B6D2F1 mice [1]; cumulative Ptx dose 90 mg/kg): counts were significantly lower on days 4 and 5 compared to baseline
Neutrophils compared to the untreated group (B6D2F1 mice [1]; cumulative Ptx dose 90 mg/kg (higher dose)): more reduced
Changes in leukocyte numbers within group (B6D2F1 mice [1]; cumulative Ptx dose 90 mg/kg, one-way ANCOVA): produced significant changes in leukocyte numbers
Fractionated Ptx dose found effective for induction of acute hematotoxicity (B6D2F1 mice [1]; given 3 times every other day): greater than 15 mg/kg
Leukocyte levels by post-day 5 compared to earlier post-days (B6D2F1 mice [2]; [4]): Counts improved by post-day 5 and 8 compared to post-day 1
Lymphocyte recovery time course relative to baseline (B6D2F1 mice [2]; [4]): baseline levels were not achieved, even by post-day 8
Neutrophil recovery time course (B6D2F1 mice [2]; [4]): Baseline levels were achieved by post-day 8
Decrease in neutrophil level on post-day 5, between groups (B6D2F1 mice [2]; early recovery period): greater
Duration of suppression of peripheral blood white blood cell counts below baseline levels (B6D2F1 mice [2]; mouse, in vivo): more than 8 days
Monocyte counts below baseline at lowest point (B6D2F1 mice [2]; mouse, in vivo): 77.6±13%
Unstimulated ROS production on post-day 11 compared to post-day 4 ([3]; mouse, in vivo): unchanged
ROS response to E. coli on post-day 11 compared to post-day 4 ([3]; p<0.0001): increased
ROS response to fMLP on post-day 11 compared to post-day 4 ([3]; p<0.0001): decreased
ROS response to E. coli compared to untreated mice ([3]; post-day 4): lower compared to untreated mice

B1: G-CSF: Neupogen (G-CSF) from Amgen; recombinant human G-CSF (protein, UniProt P09919 31-207, looked up)
Granulocyte …: TPLGPASSLPQSFLLKCLEQVRKIQGDGAALQEKLVSECATYKLCHPEELVLLGHSLGIPWAPLSSCPSQALQLAGCLSQLHSGLFLYQGLLQALEGISPELGPTLDTLQLDVADFATTIWQQMEELGMAPALQPTQGAMPAFASAFQRRAGGVLVASHLQSFLEVSYRVLRHLAQP
modifications: filgrastim, N-terminal methionine
Decline in leukocytes on post-day 2 (B6D2F1 mice [2]; Ptx 90 mg/kg, 24 hrs after G-CSF injection): not observed
Effect on Ptx-induced increase of platelet numbers (B6D2F1 mice [2]; mouse, in vivo): also not affected
